From patent publication US9540702B2, “Stabilization of enzymes with stable coenzymes” (Roche Diabetes Care, Inc., priority 2009, dated 2017) come the findings set out here.

For assay [1], the target named is glucose dehydrogenase/NAD system (Bacillus subtilis, UniProt P12310). Nature of the assay: Photometric glucose determination with test elements containing GlucDH, NAD, mediator and 2,18-phosphomolybdic acid. The note with it: glucose in the region of 800 mg/dl; test elements stored 11 weeks at room temperature. As to the method:
Various test systems which each contained glucose dehydrogenase, NAD, a mediator and, where appropriate, an optical indicator, were measured photometrically and electrochemically in order to determine glucose.
For photometric measurements four test elements which had each been stored for 11 weeks at room temperature and contained 2,18-phosphomolybdic acid in addition to glucose dehydrogenase, NAD and a mediator, were initially investigated at various glucose concentrations.
The kinetics of the conversion of glucose using the system glucose dehydrogenase, NAD, 1-(3-carboxypropoxy)-5-ethylphenazinium-trifluoromethane sulfonate and 2,18-phosphomolybdic acid at glucose concentrations in the range from 0 to 800 mg/dl is shown in FIG. 14.

Assay [2] concerns the target T1, alcohol dehydrogenase (ADH) (Saccharomyces cerevisiae, UniProt P00330).
T1 sequence (P00330 1-348): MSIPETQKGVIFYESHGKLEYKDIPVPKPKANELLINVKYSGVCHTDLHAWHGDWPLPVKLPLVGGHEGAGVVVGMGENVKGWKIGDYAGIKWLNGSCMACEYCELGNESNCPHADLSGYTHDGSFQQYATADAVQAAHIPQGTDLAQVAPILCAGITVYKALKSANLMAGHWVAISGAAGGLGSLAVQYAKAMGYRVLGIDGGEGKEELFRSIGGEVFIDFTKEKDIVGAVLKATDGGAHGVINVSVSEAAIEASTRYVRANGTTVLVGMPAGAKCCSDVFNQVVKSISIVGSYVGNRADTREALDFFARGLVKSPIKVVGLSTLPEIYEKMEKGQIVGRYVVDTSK
The assay is described as follows: Storage of alcohol dehydrogenase detection solution with NAD or cNAD (Tables 1 and 2). The assay is classed as biochemical, yeast. The note with it: 16 mmol/l coenzyme. As for the experimental part: (§1) cNAD or NAD was added to a detection solution containing alcohol dehydrogenase. These mixtures were stored at 2-8° C. and at 35° C. Subsequently, the stability of alcohol dehydrogenase (ADH) was checked at regular intervals and the residual activity of the enzyme was determined.
If alcohol dehydrogenase is stored together with native NAD or with cNAD for several months at 2-8° C. in a refrigerator, then one observes in the case of […] a considerable decrease in enzyme activity over the entire storage period. Whereas the difference after 2 weeks storage is still slight, there is an approximately 20% higher residual activity of alcohol dehydrogenase after 12 months storage in the presence of 16 mM cNAD compared to a corresponding solution containing 16 mM NAD as the coenzyme.
Accordingly, the residual activity of alcohol dehydrogenase can be increased somewhat in samples that have been stored for 2 weeks at 2-8° C. by increasing the concentration of cNAD.

Assay [3] concerns the target T1, alcohol dehydrogenase (ADH). The assay is described as follows: Stability of alcohol dehydrogenase with coenzyme in a liquid phase at 35° C. The assay is classed as biochemical, yeast. The note with it: 65 hours at 35° C., 5 mg/ml ADH, 50 mg/ml coenzyme, pH 9.0. As for the experimental part:
FIG. 12 is a graphical illustration of the stability of alcohol dehydrogenase from yeast in the presence of NAD or cNAD in a liquid phase at 35° C. for a period of 65 hours with test conditions of 5 mg/ml ADH; 50 mg/ml NAD or cNAD; buffer: 75 mM Na4P2O7; glycine, pH 9.0; temperature 35° C.
as §1
The residual activity of alcohol dehydrogenase in the presence of the native coenzyme NAD is at about 6% after 65 hours at 35° C., whereas the residual activity of the enzyme in the presence of the artificial coenzyme cNAD is still at about 60%.

For assay [4], the target named is glucose dehydrogenase (GlucDH) (Bacillus subtilis, UniProt P12310). Nature of the assay: Stability of glucose dehydrogenase with coenzyme in a liquid phase at 50° C. The note with it: 10 mg/ml GlucDH, 12 mg/ml coenzyme, pH 8.5. The assay is classed as biochemical. As for the experimental part:
FIGS. 9A and 9B are graphical illustrations of the stability of glucose dehydrogenase in the presence of NAD or cNAD in a liquid phase at 50° C. for a period of 4 days (FIG. 9A) or 14 days (FIG. 9B) with test conditions of 10 mg/ml GlucDH; 12 mg/ml NAD or cNAD; buffer: 0.1 M Tris, 1.2 M NaCl, pH 8.5; temperature 50° C.
After 95 hours at 50° C. the residual activity of glucose dehydrogenase in the presence of the native coenzyme NAD is […], whereas the residual activity of GlucDH in the presence of the artificial coenzyme cNAD is 75% (FIG. 9A). After 336 hours storage at 50° C. the residual activity of the enzyme stabilized with NAD is now only about 1%; a residual activity of still about 70% is observed for the enzyme stored in the presence of cNAD. The corresponding SDS gels also show a change in the GlucDH bands in the presence of the native coenzyme NAD: new bands are seen at higher molar masses and there is a shift in the 30 kDa band.

The target in assay [5] is Glucose dehydrogenase mutant2 (Bacillus subtilis, UniProt P12310, A229V/A236S/E170K/Q252L). Nature of the assay: Differential scanning calorimetry (DSC) of coenzyme binding. The note with it: Tris buffer, pH 8.0; versus absence of NAD (79.1° C.). For orientation: DSC measures the heat that a sample takes up or gives off during a temperature scan.
Sequence of Glucose dehydrogenase mutant2 (P12310 whole entry E170K/A229V/A236S/Q252L): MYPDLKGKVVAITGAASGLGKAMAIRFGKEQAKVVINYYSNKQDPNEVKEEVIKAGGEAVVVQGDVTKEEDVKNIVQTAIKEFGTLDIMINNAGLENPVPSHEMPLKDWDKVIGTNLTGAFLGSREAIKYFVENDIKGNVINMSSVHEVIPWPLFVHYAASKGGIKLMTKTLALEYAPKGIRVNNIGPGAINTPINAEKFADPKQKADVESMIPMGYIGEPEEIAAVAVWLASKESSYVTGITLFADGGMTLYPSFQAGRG

Sequence of glucose dehydrogenase/NAD system (P12310 whole entry): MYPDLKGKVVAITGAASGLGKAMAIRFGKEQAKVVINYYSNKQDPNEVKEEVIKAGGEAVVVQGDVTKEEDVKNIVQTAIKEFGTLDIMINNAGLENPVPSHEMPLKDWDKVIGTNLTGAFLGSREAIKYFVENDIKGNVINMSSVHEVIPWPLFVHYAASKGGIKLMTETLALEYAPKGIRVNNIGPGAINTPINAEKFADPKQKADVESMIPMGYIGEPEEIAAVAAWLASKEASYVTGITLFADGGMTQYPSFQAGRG
Sequence of glucose dehydrogenase (GlucDH) (P12310 whole entry): as above

Take `Cl.O=Nc1ccc(N(CO)CO)cc1` [[(4-nitroso-phenyl)imino]dimethanol hydrochloride]: the “reflectance of the measured sample” value in assay [1] is reported as “about 20%”.

For `NC(=O)c1ccc[n+]([C@@H]2O[C@H](COP(=O)([O-])OP(=O)(O)OC[C@H]3O[C@@H](n4cnc5c(N)ncnc54)[C@H](O)[C@@H]3O)[C@@H](O)[C@H]2O)c1` [NAD, nicotinamide adenine dinucleotide, reference compound], the “ADH activity after 2 weeks at 2-8° C.” value in assay [2] (2 weeks at 2-8° C.) is given as 96.9 % of initial value. In addition, the “ADH activity after 3 months at 2-8° C.” value in assay [2] (3 months at 2-8° C.) is listed as 92.1 % of initial value. In addition, in assay [2] (7.5 months at 2-8° C.), the “ADH activity after 7.5 months at 2-8° C.” value was 80.2 % of initial value. For the same compound, the “ADH activity after 10 months at 2-8° C.” value in assay [2] (10 months at 2-8° C.) was 70.3 % of initial value. The “ADH activity after 12 months at 2-8° C.” value in assay [2] (12 months at 2-8° C.) was 60.5 % of initial value. For the same compound, in assay [2] (initial value), the “ADH activity % of weighed amount (initial value)” value was 85.2 % of weighed amount. Besides, in assay [3], the “residual activity of alcohol dehydrogenase” value was “about 6%”. Besides, the entries for the “residual activity of glucose dehydrogenase” value in assay [4] (95 hours at 50° C.) and in assay [4] (336 hours at 50° C.) were over 5% and “about 1%”, respectively. Further, in assay [5], the “TM shift on binding of ligand” value is “more than 1.5 °C”.

For `CC[n+]1c2ccccc2nc2c(OCCCC(=O)O)cccc21.O=S(=O)([O-])C(F)(F)F` [1-(3-carboxy-propoxy)-5-ethylphenazinium-trifluoromethane sulfonate], the “reflectance of the measured sample” value in assay [1] was “about 20%”.
